{
  "source": "paper PMC3558502",
  "about": "“Acaricide, Fungicide and Drug Interactions in Honey Bees (Apis mellifera)” (PLoS ONE, 2013)",
  "key": {"[1]": {"tested_on": "honey bees (Apis mellifera)", "experiment": "Lethal dose bioassay: topical sublethal pre-treatment (acaricide, fungicide or enzyme inhibitor), then topical acaricide dose series, 2009", "conditions": "for interactive effect between pre-treatment and acaricide toxicity (in words): 2009 topical pre-treatments, partner named in the value; for LD10: from fitted dose-response lines, control pre-treatment, 2009 (Table S1)", "protocol": "Bees were first treated with a sublethal dose of either an acaricide, a fungicide, an antimicrobial drug, or an enzyme inhibitor. Bees were then treated with a range of lethal doses of an acaricide to estimate the dose-response curve. […] We tested 25 of the 6×6 possible acaricide-acaricide combinations, 24 of the 6×5 fungicide-acaricide combinations, 15 of the 6×3 antimicrobial-acaricide combinations and 9 of the 6×3 enzyme inhibitor-acaricide combinations. […] The fungicides propiconazole, fenbuconazole, metconazole and myclobutanil were tested in combination with a single acaricide, tau-fluvalinate.\n(§1) Frames of late-stage brood were collected from these colonies and placed in a dark, humid incubator (Darwin Chambers Co., St. Louis, MO, model H024) at 34°C. Newly emerged adults were brushed from frames daily into screened wooden cages (21×14×12 cm) and weighed as a group to estimate the number of bees. Each cohort of 200–800 bees was provisioned with 1∶1 (w/w) granulated sugar dissolved in water and held for 3–4 days in the incubator.\nEach treatment series was conducted using 3–4 day-old adult worker bees divided into 8–13 subgroups of 20 bees each. Bees were narcotized with carbon dioxide and each subgroup was placed in a separate wax-coated paper cup (177 cm^3; Solo S306, Highland Park, IL) covered with cotton cheesecloth and secured with two rubber bands. A maximum sublethal pre-treatment of an acaricide, fungicide, enzyme inhibitor, or solvent control, was then applied to bees in all subgroups. […] Sublethal doses used as pre-treatment for acaricides were determined in preliminary bioassays or previous studies and corresponded to doses less than or near the LD10 values determined in the current experiment. […] All doses were delivered topically in 1 µl of acetone and applied to the thoracic notum using a 50 µl syringe fitted in a repeating dispenser (Hamilton PB-600, Reno, NV). A control pre-treatment consisting of 1 µl of pure acetone was also included.\n(§2) Groups of pre-treated bees were allowed to recover for 1 h to minimize mortality due to extended carbon dioxide anaesthetization. Each subgroup of approximately 20 bees, of the 8–13 dose-groups in the bioassay, was then anaesthetized again and treated topically with either an acetone solvent control or one of a range of 7–12 acaricide doses, including doses eliciting 0% and 100% mortality, and at least three doses causing intermediate mortality. After treatment sucrose water was provided to groups of treated bees through a punctured 1.5 ml microcentrifuge tube following dosing, and bees were returned to the 34°C incubator. […] Immobile bees were scored as dead. […] At least three replicate treatment series were performed for each combination of pre-treatment and acaricide. Separately diluted acaricide dose series and bees taken from different colonies were used for each replicate treatment.\n(§3) Lines were fitted to dose-mortality data on a log-probit scale for each pretreatment-acaricide combination using ‘glm’ in the R statistical package. […] Interactive effects between acaricides and the various pre-treatments were determined with pairwise tests comparing the dose-response lines for bees receiving pre-treatments with bees receiving a control pre-treatment using a test analogous to ANCOVA [26]. The full model, which includes the dose of acaricide as a covariate, pre-treatment as a categorical factor and the interaction between acaricide dose and pre-treatment, was compared with two simplified models (Figure 3). A process of model simplification was undertaken in which the explanatory power of model terms was assessed by reference to the likelihood ratio [38]. The first simplified model lacks the interaction term and tests the interaction between pre-treatment and acaricide dose, essentially testing for differences in the slope of the two dose-response lines (also known as a test of the “hypothesis of parallelism” [26])."}, "[2]": {"tested_on": "honey bees (Apis mellifera)", "experiment": "Lethal dose bioassay: antimicrobial drugs fed in sucrose syrup, then topical acaricide dose series, 2010", "conditions": "for interactive effect between antimicrobial pre-treatment and acaricide toxicity (in words): 2010 oral pre-treatments, partner named in the value", "protocol": "as §1, §2, §3"}, "[3]": {"tested_on": "honey bees", "experiment": "Estimated daily exposure and margin of safety of acaricide formulations", "parameters": "species or system Apis mellifera", "conditions": "LD10 divided by estimated daily dose", "from_the_text": "High sublethal doses were deliberately chosen as pre-treatments to make the magnitude of any interactive effect between the pre-treatment and acaricide as large as possible. However, to determine the hazard posed by acaricide interactions in bee hives, the actual exposure bees receive when treated with formulated acaricides must be considered. […] The LD10 can be determined from the fitted dose response lines (Table S1). The daily dose can be estimated by first determining the amount of active ingredient present in each acaricide formulation, correcting this value by the amount of active ingredient available for uptake by the bees (e.g. 10% of the total acaricide content in strip formulations is taken up by bees, [50]) and dividing this quantity by the number of days the acaricide formulation is present in the hive. The estimated daily dose calculated in this way can be validated using published pesticide residue data, [51]."}, "[4]": {"tested_on": "Apis mellifera", "conditions": "cited from earlier work"}, "[5]": {"tested_on": "honey bees (Apis mellifera)", "conditions": "study conducted in 2008 using an identical protocol; cited from earlier work"}, "[6]": {"tested_on": "honey bees (Apis mellifera)", "experiment": "Lethal dose bioassay: tau-fluvalinate after PBO or SBI fungicide pre-treatment at 0.1, 1 or 10 nmol per bee, 2010", "format": "in vivo", "from_the_text": "Acetone was also applied as a pre-treatment control.\nImmobile bees were scored as dead."}, "[7]": {"conditions": "tau-fluvalinate topical dose series after acetone control pre-treatment"}},
  "note": "“Also recorded” adds a separate entry of the source. Where a name gives a salt, the structure may show the parent alone. Read-outs that look alike come from different tables or passages of the source.",
  "data": [
    {"smiles": "CCOC(=O)/C=C\\C(=O)OCC", "note": "[DEM, diethyl maleate]", "values": [
      {"measurement": "interactive effect between pre-treatment and acaricide toxicity (in words)", "setting": "[1]", "value": "did not interact with any acaricide tested"}
    ]},
    {"smiles": "Cc1ccc(/N=C/N(C)/C=N/c2ccc(C)cc2C)c(C)c1", "note": "[amitraz]", "values": [
      {"measurement": "interactive effect between antimicrobial pre-treatment and acaricide toxicity (in words)", "setting": "[2]", "value": "this combination had no effect on acute mortality"},
      {"measurement": "margin of safety of acaricide formulations", "setting": "[3]", "value": "2.0 to 7.8", "unit": "fold"},
      {"measurement": "interactive effect between pre-treatment and acaricide toxicity (in words)", "setting": "[1]", "value": "toxicity of amitraz was unchanged when bees were pre-treated with tau-fluvalinate; also recorded: oxalic acid pre-treatment reduced the toxicity of amitraz nearly four-fold"},
      {"measurement": "LD10", "setting": "[1]", "value": 0.92, "unit": "µg/bee"}
    ]},
    {"smiles": "O=C(Nc1ccccc1-c1ccc(Cl)cc1)c1cccnc1Cl", "note": "[boscalid]", "values": [
      {"measurement": "interactive effect between pre-treatment and acaricide toxicity (in words)", "setting": "[1]", "value": "did not interact with any acaricide tested"}
    ]},
    {"smiles": "O=C(O)C(=O)O", "note": "[oxalic acid]", "values": [
      {"measurement": "LD10", "setting": "[4]", "value": 176.7, "unit": "c µg/bee"}
    ]},
    {"smiles": "CC(C)[C@@H](Nc1ccc(C(F)(F)F)cc1Cl)C(=O)OC(C#N)c1cccc(Oc2ccccc2)c1", "note": "(stereo partly shown) [tau-fluvalinate]", "values": [
      {"measurement": "LD50 for tau-fluvalinate", "setting": "[5]", "value": 6.75, "unit": "µg per bee"},
      {"measurement": "LD50 of the acaricide", "setting": "[2]; 2010, topical acaricide, bees fed control 1:1 sucrose syrup", "value": 9.2, "unit": "µg per bee"},
      {"measurement": "interactive effect between antimicrobial pre-treatment and acaricide toxicity (in words)", "setting": "[2]", "value": "pretreating bees with oxytetracycline had no significant effect on the LD50 of tau-fluvalinate"},
      {"measurement": "interactive effect between SBI fungicide pre-treatment and tau-fluvalinate toxicity (in words)", "setting": "[6]; 2010, SBI fungicides", "value": "an antagonistic interaction was observed at the lowest fungicide doses (0.1 nmol or approximately 0.03 µg per bee)"},
      {"measurement": "LD50 for tau-fluvalinate", "setting": "[6]; 2010, topical, pre-treatment: control (acetone)", "value": 9.0, "unit": "µg per bee"},
      {"measurement": "interaction between tau-fluvalinate and PBO", "setting": "[6]; PBO 10 nmol dose level", "value": 5.8, "unit": "fold"},
      {"measurement": "increase in toxicity of tau-fluvalinate", "setting": "[6]; pre-treated with any of the 5 fungicides or PBO at the 1 nmol dose", "value": "1.4 to 2.3", "unit": "fold"},
      {"measurement": "increase in toxicity of tau-fluvalinate", "setting": "[6]; pre-treated with any of the 5 fungicides or PBO at the 10 nmol dose", "value": "12 to 74", "unit": "fold"},
      {"measurement": "dose-response line intercept ± SE", "setting": "[6]; [7]", "value": "-2.72 ± 0.24"},
      {"measurement": "dose-response line slope ± SE", "setting": "[6]; [7]", "value": "2.85 ± 0.26"},
      {"measurement": "LD50 of the acaricide", "setting": "[1]; 2009, topical, adult workers, pre-treatment: control, 1 µl acetone", "value": 19.8, "unit": "µg per bee"},
      {"measurement": "increase in toxicity of tau-fluvalinate", "setting": "[1]; 2009 experiments, prochloraz pre-treatment", "value": "~2000", "unit": "fold"},
      {"measurement": "interactive effect between pre-treatment and acaricide toxicity (in words)", "setting": "[1]", "value": "tau-fluvalinate toxicity was transitively increased when thymol was applied as a pre-treatment; also recorded: chlorothalonil increased the toxicity of both thymol and tau-fluvalinate; also recorded: Pyraclostrobin and boscalid applied together in a blend like Pristine moderately increased the toxicity of tau-fluvalinate"},
      {"measurement": "increase in toxicity of tau-fluvalinate", "setting": "[1]; amitraz pre-treatment", "value": 5, "unit": "fold"},
      {"measurement": "increase in toxicity of tau-fluvalinate", "setting": "[1]; fenpyroximate pre-treatment", "value": 8, "unit": "fold"},
      {"measurement": "LD10", "setting": "[1]", "value": 3.08, "unit": "µg/bee"}
    ]},
    {"smiles": "Cc1ccc(C(C)C)c(O)c1", "note": "[thymol]", "values": [
      {"measurement": "margin of safety of acaricide formulations", "setting": "[3]", "value": "2.0 to 7.8", "unit": "fold"}
    ]},
    {"smiles": "CC[C@H]1OC(=O)C[C@@H](O)[C@H](C)[C@@H](O[C@@H]2O[C@H](C)[C@@H](O[C@H]3C[C@@](C)(O)[C@@H](O)[C@H](C)O3)[C@H](N(C)C)[C@H]2O)[C@@H](CC=O)C[C@@H](C)C(=O)/C=C/C(C)=C/[C@@H]1CO[C@@H]1O[C@H](C)[C@@H](O)[C@@H](OC)[C@H]1OC", "note": "[tylosin]", "values": [
      {"measurement": "interactive effect between antimicrobial pre-treatment and acaricide toxicity (in words)", "setting": "[2]", "value": "did not interact with any acaricide tested"}
    ]}
  ]
}
